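Cultured in 96-well plates, cells were exposed to test compound for 48 hours across five concentrations. Here, GI50 denotes the concentration required for 50% inhibition of growth.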 Activity calls are given as the source filed them. No stated cut-off is given here; in the data, active = GI50 up to about 1.1 µM and inactive = higher.
How the values were obtained:
Assay in all cases: NCI anticancer screen, dose series, 48 h
[1] = tested on: HCT-15
[2] = tested on: SR
[3] = tested on: HL-60
[4] = tested on: ACHN
[5] = tested on: NCI-H460
[6] = tested on: K562
[7] = tested on: HOP-92
[8] = tested on: EKVX
[9] = tested on: SK-OV-3
[10] = tested on: T47D
[11] = tested on: Malme-3M
[12] = tested on: SF-295
[13] = tested on: MDA-MB-231
[14] = tested on: PC-3
[15] = tested on: U-251
[16] = tested on: 786-0
[17] = tested on: OVCAR-4
[18] = tested on: A549
[19] = tested on: HCC 2998
[20] = tested on: UACC-62

| SMILES | GI50 [1] [µM] | GI50 [2] | GI50 [3] | GI50 [4] | GI50 [5] | GI50 [6] | GI50 [7] | GI50 [8] | GI50 [9] | GI50 [10] | GI50 [11] | GI50 [12] | GI50 [13] | GI50 [14] | GI50 [15] | GI50 [16] | GI50 [17] | GI50 [18] | GI50 [19] | GI50 [20] |
| --- | --- | --- | --- | --- | --- | --- | --- | --- | --- | --- | --- | --- | --- | --- | --- | --- | --- | --- | --- | --- |
| c1ccc(N/N=N/c2ccc(-c3nc4ccccc4[nH]3)cc2)nc1 | 15.8 | 2.12 µM (inactive) | 50.8 µM (inactive) | 16.6 µM (inactive) | 15.2 µM (inactive) | 7.31 µM (inactive) | 17.3 µM (inactive) | 17.3 µM (inactive) | 14.7 µM (inactive) | 12.7 µM (inactive) | 15.6 µM (inactive) | 19.2 µM (inactive) | 12.6 µM (inactive) | 18.1 µM (inactive) | 16.5 µM (inactive) | 14.4 µM (inactive) | 17.8 µM (inactive) | 19.2 µM (inactive) | – | – |
| c1ccc2nn(C3CCCCO3)nc2c1 (centres undefined) | > 100 | > 100 µM (inactive) | – | > 100 µM (inactive) | > 100 µM (inactive) | > 100 µM (inactive) | – | > 100 µM (inactive) | > 100 µM (inactive) | > 100 µM (inactive) | > 100 µM (inactive) | > 100 µM (inactive) | > 100 µM (inactive) | > 100 µM (inactive) | > 100 µM (inactive) | > 100 µM (inactive) | > 100 µM (inactive) | > 100 µM (inactive) | > 100 µM (inactive) | > 100 µM (inactive) |
| Cc1nc2c(=O)[nH]ncc2[nH]1 | > 100 | > 100 µM (inactive) | 64 µM (inactive) | > 100 µM (inactive) | > 100 µM (inactive) | > 100 µM (inactive) | – | > 100 µM (inactive) | – | > 100 µM (inactive) | – | > 100 µM (inactive) | > 100 µM (inactive) | > 100 µM (inactive) | > 100 µM (inactive) | > 100 µM (inactive) | – | > 100 µM (inactive) | – | > 100 µM (inactive) |
| CN(C)C(=O)C1CCN(Cc2c[nH]c3ccccc23)CC1 | > 100 | > 100 µM (inactive) | > 100 µM (inactive) | > 100 µM (inactive) | – | > 100 µM (inactive) | > 100 µM (inactive) | > 100 µM (inactive) | > 100 µM (inactive) | > 100 µM (inactive) | > 100 µM (inactive) | > 100 µM (inactive) | > 100 µM (inactive) | > 100 µM (inactive) | > 100 µM (inactive) | > 100 µM (inactive) | > 100 µM (inactive) | > 100 µM (inactive) | – | > 100 µM (inactive) |
| CSc1cc(Cl)c(C)cc1S(=O)(=O)NC(=O)NNc1ccc(F)c(Cl)c1 | > 100 | 61 µM (inactive) | – | > 100 µM (inactive) | > 100 µM (inactive) | > 100 µM (inactive) | – | > 100 µM (inactive) | > 100 µM (inactive) | > 100 µM (inactive) | > 100 µM (inactive) | > 100 µM (inactive) | > 100 µM (inactive) | > 100 µM (inactive) | > 100 µM (inactive) | > 100 µM (inactive) | > 100 µM (inactive) | > 100 µM (inactive) | > 100 µM (inactive) | – |
| COc1cc2c3c(n(C)c(=O)c2cc1OC)-c1cc2c(cc1/C3=C\CCCCCBr)OCO2 | 21.3 | 0.43 µM (active) | 4.02 µM (inactive) | 4.39 µM (inactive) | 5.83 µM (inactive) | 6.3 µM (inactive) | 4.52 µM (inactive) | 22.3 µM (inactive) | 7.91 µM (inactive) | 2.75 µM (inactive) | – | 4.56 µM (inactive) | 40.3 µM (inactive) | 28.8 µM (inactive) | 3.51 µM (inactive) | 5.77 µM (inactive) | 26.9 µM (inactive) | 9.08 µM (inactive) | – | – |
| COc1c(OC)c(OC)c(C(=O)/C=C/c2ccccc2)c(OC)c1OC | 10.6 | – | 7.11 µM (inactive) | 11.7 µM (inactive) | 6.46 µM (inactive) | 4.17 µM (inactive) | 3.13 µM (inactive) | 13.9 µM (inactive) | 12.3 µM (inactive) | 9.02 µM (inactive) | 10.1 µM (inactive) | 12.4 µM (inactive) | 14.5 µM (inactive) | 8.67 µM (inactive) | 7.46 µM (inactive) | 9.29 µM (inactive) | 5.97 µM (inactive) | 12.5 µM (inactive) | 14.7 µM (inactive) | 6.87 µM (inactive) |
| Cc1ccc([N+](=O)[O-])cc1S(=O)(=O)Nc1ccc(C2=NN(c3ccc([N+](=O)[O-])cc3[N+](=O)[O-])C(c3ccccc3O)C2)cc1 (centres undefined) | 27 | 27.2 µM (inactive) | 27.4 µM (inactive) | 35.1 µM (inactive) | – | 21.8 µM (inactive) | 26.6 µM (inactive) | 26 µM (inactive) | 57 µM (inactive) | 27.6 µM (inactive) | 41.7 µM (inactive) | 29.9 µM (inactive) | 20.6 µM (inactive) | 36.4 µM (inactive) | 37.1 µM (inactive) | 39.8 µM (inactive) | 31 µM (inactive) | 31.4 µM (inactive) | – | – |
| O=C(/C=C/C(Cl)(Cl)Cl)Nc1ccc(Cl)cc1 | 3.56 | – | 1.48 µM (inactive) | 2.3 µM (inactive) | 14.2 µM (inactive) | 1.62 µM (inactive) | 2.12 µM (inactive) | 5.02 µM (inactive) | 18.9 µM (inactive) | 2.15 µM (inactive) | 5.37 µM (inactive) | 12.4 µM (inactive) | 2.49 µM (inactive) | 12.5 µM (inactive) | 11.6 µM (inactive) | 1.55 µM (inactive) | 1.82 µM (inactive) | 3.99 µM (inactive) | 6.44 µM (inactive) | 7.64 µM (inactive) |
| N#Cc1c2c(c(N3CCOCC3)n3c1nc1ccccc13)CCCC2 | 17.8 | – | 13.8 µM (inactive) | 14.8 µM (inactive) | 23.7 µM (inactive) | 25.1 µM (inactive) | 17.1 µM (inactive) | 16.2 µM (inactive) | 22.6 µM (inactive) | 19.2 µM (inactive) | 17.7 µM (inactive) | 17.9 µM (inactive) | 21.3 µM (inactive) | 21.9 µM (inactive) | 14.3 µM (inactive) | 16.3 µM (inactive) | 20 µM (inactive) | 23.8 µM (inactive) | 21.8 µM (inactive) | 22.3 µM (inactive) |
| O=[N+]([O-])C(C(Cl)=C(Cl)Cl)=C(n1cncn1)n1cncn1 | 17.8 | 31.2 µM (inactive) | – | 19.3 µM (inactive) | > 75.5 µM (inactive) | – | – | 24.3 µM (inactive) | > 100 µM (inactive) | 19 µM (inactive) | 16.4 µM (inactive) | > 86.7 µM (inactive) | 19.5 µM (inactive) | 32.1 µM (inactive) | 34.6 µM (inactive) | 18.6 µM (inactive) | 24.4 µM (inactive) | > 22.1 µM (inactive) | > 58.3 µM (inactive) | 39.9 µM (inactive) |
| CCOC(=O)NNC(=O)C1CSC(c2ccccc2)N1C(C)=O (centres undefined) | > 100 | – | > 100 µM (inactive) | > 100 µM (inactive) | > 100 µM (inactive) | > 100 µM (inactive) | 82.2 µM (inactive) | > 100 µM (inactive) | > 100 µM (inactive) | > 100 µM (inactive) | > 100 µM (inactive) | > 100 µM (inactive) | > 100 µM (inactive) | > 100 µM (inactive) | > 100 µM (inactive) | > 100 µM (inactive) | > 100 µM (inactive) | > 100 µM (inactive) | > 100 µM (inactive) | > 100 µM (inactive) |
| CC(C)CCCC(C)[C@H]1CCC2[C@@H]3CCC4Cc5nc6c(nc5C[C@]4(C)C3CC[C@@]21C)CC1CC[C@@H]2C(CC[C@@]3(C)C2CC[C@@H]3O)[C@@]1(C)C6 (some centres undefined) | > 100 | > 100 µM (inactive) | > 100 µM (inactive) | > 100 µM (inactive) | > 100 µM (inactive) | > 100 µM (inactive) | > 100 µM (inactive) | > 100 µM (inactive) | > 100 µM (inactive) | > 100 µM (inactive) | > 100 µM (inactive) | > 100 µM (inactive) | > 100 µM (inactive) | > 100 µM (inactive) | > 100 µM (inactive) | 87.1 µM (inactive) | > 100 µM (inactive) | > 100 µM (inactive) | – | > 100 µM (inactive) |
| COC(=O)C1=C(O)C(C(=O)OC)[C@@]2(O)[C@@H](C(=O)OC)C(c3ccc(OC(=O)/C(=C/c4ccc(Cl)cc4)c4ccc(Cl)cc4)cc3)C[C@@H]1[C@@H]2C(=O)OC (some centres undefined) | 18.5 | 9.06 µM (inactive) | 34.6 µM (inactive) | 32.4 µM (inactive) | 14.4 µM (inactive) | 22.3 µM (inactive) | 19.5 µM (inactive) | 33.8 µM (inactive) | > 100 µM (inactive) | 18.7 µM (inactive) | 55.7 µM (inactive) | 29.8 µM (inactive) | 19.1 µM (inactive) | 24.1 µM (inactive) | 24.4 µM (inactive) | 22 µM (inactive) | 20.6 µM (inactive) | 77.4 µM (inactive) | – | 7.29 µM (inactive) |
| c1cc2c(cc1C(N1CCNCC1)N1CCNCC1)OCO2 | > 100 | 9.64 µM (inactive) | – | > 100 µM (inactive) | > 100 µM (inactive) | 2.42 µM (inactive) | > 100 µM (inactive) | > 100 µM (inactive) | > 100 µM (inactive) | > 100 µM (inactive) | > 100 µM (inactive) | > 100 µM (inactive) | > 100 µM (inactive) | > 100 µM (inactive) | > 100 µM (inactive) | > 100 µM (inactive) | > 100 µM (inactive) | > 100 µM (inactive) | – | > 100 µM (inactive) |
